Test system: bone cancer cell line MG-63
Test: In vitro survival assay (MTT) for inhibition of bone cancer cells
Type: cell-based
Settings: Homo sapiens, MG-63 cells, 48 hours treatment, absorbance at 570 nm, read-out: IC50 (half inhibition concentration), survival of bone cancer cells
Method: Inhibiting effects of bone cancer cells by cyclohexenone compounds of Antrodia camphorata from example 1 were assessed according to the anticancer-drug screening model of National Cancer Institute (NCI). The compound 4-hydroxy-2,3-dimethoxy-6-methyl-5-(3,7,11-trimethyl-dodeca-2,6,10-trienyl)-cyclohex-2-enone from example 1 was added into the culture media of bone cancer cell line MG-63 to determine the survival rates. Survival of cell was analyzed using MTT assay. MG-63 cell line was an osteoblast-like fibroblast cell line and derived from human osteosarcoma, which had similar cell type and feature with osteoblast.
MTT assay is commonly used to analyze cell proliferation, survival rate of viable cells and cytotoxicity. MTT (3[4,5-dimethylthiazol-2-yl]-2,5-diphenyltetrazolium bromide) is a yellow dye which can be converted to water-insoluble purple formazan on the reductive cleavage of its tetrazolium ring by the succinate tetrazolium reductase in mitochondria of cells. The amount of formazan produced is used to detect the number of viable cells and calculate the survival rates.
The MG-63 cells were cultivated in Dulbecco's modified Eagle's medium (DMEM) supplemented with 10% fetal bovine serum, 100 IU/ml of Penicillin and […] of Streptomycin at 37° C., 5% CO2 for 24 hours. […] The absorbances were measured at 570 nm with an ELISA Reader to determine the survival rates.

## COC1=C(OC)C(O)C(C/C=C(\C)CC/C=C(\C)CCC=C(C)C)C(C)C1=O (stereo not shown) [formula 2, 4-hydroxy-2,3-dimethoxy-6-methyl-5-(3,7,11-trimethyl-dodeca-2,6,10-trienyl)-cyclohex-2-enone]
  IC50: 2.09 µg/mL

Source: patent US20120322890A1, “Inhibition of the Survival of Bone Cancer by Cyclohexenone Compounds from Antrodia Camphorata” (Golden Biotechnology Corporation, priority 2009, published 2012)
